Reference: publication PMC11555526, “Development of 2-Aminoadenine-Based Proteolysis-Targeting Chimeras (PROTACs) as Novel Potent Degraders of Monopolar Spindle 1 and Aurora Kinases” (ACS Pharmacology & Translational Science, 2024)
pEC50: −log10 of the molar value. Several values for one entry are separate records, joined by “and”; a condition that tells them apart may be missing. Equal entries are not always repeated. Where two headings read alike, the source gives them in different places.

What was measured:
MV4-11 cells (naive) = assay: alamarBlue cell viability assay; assay type: cell-based, human
Experimental: Finally, to study the effect of the compounds on cancer cell survival, MV4-11 cells were treated with various concentrations of the chimeras and the cell viability was assessed after 72 h. […] As opposed to the parent inhibitor MPS1-IN-3, its derivatives except 40 were not cytotoxic (Figure S7B, Table 5). […] In addition, most of the SF1-based derivatives affected the viability of MV4-11 cells in nanomolar concentrations (Table 5).
For the alamarBlue cell viability assay, cells were seeded in 96-well plates and treated with indicated concentrations of the compounds or vehicle. A few hours before the experimental end point (72 h, unless otherwise stated), the cells were incubated with the alamarBlue reagent. Finally, fluorescence (excitation: 550 nm and emission: 600 nm) or absorbance (570 nm with reference at 600 nm) was measured on a Tecan Spark Multiplate reader (Tecan).

[1] = biological target: T1, AURKB (MV4-11^AURKB-HiBiT cells) (Homo sapiens, UniProt Q96GD4); assay: HiBiT assay, AURKB degradation; assay type: cell-based; design: key to Dmax (maximal degradation) AURKB: compounds with degradation less than 15% reported as “inactive”; conditions: 6 h treatment; for DC50: read-out: DC50 (half-maximal degradation concentration) AURKB
T1 construct: expressed in transfected cells; host or cells: MV4-11, lentiviral transduction (pRRL-PGK vector)
T1 sequence (Q96GD4 1-345 isoform Q96GD4-5): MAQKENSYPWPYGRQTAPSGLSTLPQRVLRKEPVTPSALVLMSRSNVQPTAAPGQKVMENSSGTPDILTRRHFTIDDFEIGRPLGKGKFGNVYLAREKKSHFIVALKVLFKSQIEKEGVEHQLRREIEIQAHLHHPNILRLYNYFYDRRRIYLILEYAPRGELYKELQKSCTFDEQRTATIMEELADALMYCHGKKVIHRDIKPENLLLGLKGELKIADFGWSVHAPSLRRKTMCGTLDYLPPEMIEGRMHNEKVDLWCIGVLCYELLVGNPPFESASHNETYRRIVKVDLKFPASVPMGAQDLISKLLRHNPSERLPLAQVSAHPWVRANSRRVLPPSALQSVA
Experimental: (§1) The effects of the synthesized compounds on AURKA, AURKB, and TTK mitotic kinases were then assessed in cellular systems. For this, HiBiT cell lines were generated for all three mitotic kinases. A small 11 amino acid peptide fragment of luciferase (HiBiT) was fused to the coding sequence of the proteins and stably transduced in the MV4-11 cell line (MV4-11^AURKA-HiBiT, MV4-11^AURKB-HiBiT, and MV4-11^HiBiT-TTK).
(§2) The stable cell lines MV4-11^AURKA-HiBiT, MV4-11^AURKB-HiBiT, and MV4-11^HiBiT-TTK cells were generated by lentiviral infection. Lentivirus was produced using the respective HiBiT vector, plasmids psPAX2, and pMD2.G in HEK293 cells. The virus supernatant was filtered and MV4-11 cells were doubly infected with the supernatant. The cells were selected after 48 h of infection until the control cells were dead to get the stable cell line.
(§3) The cells stably expressing HiBiT-tagged protein were seeded into 96-well plates and treated with serial dilutions of compounds for the indicated time points. At the end point, the assay was performed using the Nano-Glo HiBiT Lytic Detection System (Promega) according to the manufacturer’s instruction. Luminescence was measured on a GloMax 96 Microplate Luminometer (Promega) or a Tecan Spark Multiplate reader (Tecan). DC50 was calculated using concentrations showing sigmoidal behavior with the dose–response (four parameters) equation in Prism (GraphPad).

[2] = biological target: T2, TTK (MV4-11^HiBiT-TTK cells) (Homo sapiens, UniProt P33981); assay: HiBiT assay, TTK degradation; assay type: cell-based; design: key to Dmax (maximal degradation) TTK: compounds with degradation less than 15% reported as “inactive”; conditions: for Dmax (maximal degradation) TTK / DC50 / DC50 (half-maximal degradation concentration) TTK: 6 h treatment, MV4-11^HiBiT-TTK cells; for DC50: read-out: DC50 (half-maximal degradation concentration) TTK
T2 construct: expressed in transfected cells; host or cells: MV4-11, lentiviral transduction (pRRL-PGK-HiBiT entry vector)
T2 sequence (P33981 1-857): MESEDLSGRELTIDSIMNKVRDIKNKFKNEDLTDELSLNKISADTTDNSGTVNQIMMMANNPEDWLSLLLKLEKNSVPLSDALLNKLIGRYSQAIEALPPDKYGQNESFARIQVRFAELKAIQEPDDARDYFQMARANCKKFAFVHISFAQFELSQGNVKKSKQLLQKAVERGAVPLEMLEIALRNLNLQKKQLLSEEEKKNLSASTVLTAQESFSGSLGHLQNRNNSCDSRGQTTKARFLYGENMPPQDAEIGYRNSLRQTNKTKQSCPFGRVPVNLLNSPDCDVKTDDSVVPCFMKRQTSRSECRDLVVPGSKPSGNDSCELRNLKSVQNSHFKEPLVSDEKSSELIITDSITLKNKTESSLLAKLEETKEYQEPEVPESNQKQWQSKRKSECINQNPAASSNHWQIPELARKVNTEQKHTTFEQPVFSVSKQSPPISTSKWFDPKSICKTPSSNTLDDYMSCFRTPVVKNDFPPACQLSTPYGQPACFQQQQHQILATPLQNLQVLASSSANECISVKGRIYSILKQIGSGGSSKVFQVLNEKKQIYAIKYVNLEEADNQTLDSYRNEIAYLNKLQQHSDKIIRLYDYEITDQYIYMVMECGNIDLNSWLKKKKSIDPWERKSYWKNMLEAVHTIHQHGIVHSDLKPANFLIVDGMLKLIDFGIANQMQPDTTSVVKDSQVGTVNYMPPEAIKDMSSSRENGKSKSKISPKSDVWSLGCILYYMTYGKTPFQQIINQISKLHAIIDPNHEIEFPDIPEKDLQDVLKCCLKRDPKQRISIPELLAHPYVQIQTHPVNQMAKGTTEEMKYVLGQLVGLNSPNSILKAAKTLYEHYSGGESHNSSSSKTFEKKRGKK
Experimental: as §1, §2, §3

[3] = biological target: T3, AURKA (MV4-11^AURKA-HiBiT cells) (Homo sapiens, UniProt O14965); assay: HiBiT assay, AURKA degradation; assay type: cell-based; conditions: for DC50: read-out: DC50 (half-maximal degradation concentration) AURKA
T3 construct: expressed in transfected cells; host or cells: MV4-11, lentiviral transduction
T3 sequence (O14965 1-403): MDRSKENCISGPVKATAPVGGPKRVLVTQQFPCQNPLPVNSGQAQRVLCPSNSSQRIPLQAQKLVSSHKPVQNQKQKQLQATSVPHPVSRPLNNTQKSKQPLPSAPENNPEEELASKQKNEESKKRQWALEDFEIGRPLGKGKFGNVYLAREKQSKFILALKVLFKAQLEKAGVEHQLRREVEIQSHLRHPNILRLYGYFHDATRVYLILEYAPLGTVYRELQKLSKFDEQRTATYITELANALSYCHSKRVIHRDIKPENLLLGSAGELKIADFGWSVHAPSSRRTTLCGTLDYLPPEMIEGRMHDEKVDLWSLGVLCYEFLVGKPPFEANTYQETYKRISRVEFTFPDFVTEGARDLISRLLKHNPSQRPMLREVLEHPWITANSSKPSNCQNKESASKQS
Experimental: as §1, §2, §3

[4] = 72 h treatment, MV4-11 cells (naive), read-out: EC50 (concentration that decreases cell viability by 50%)
[5] = 6 h treatment, MV4-11^AURKA-HiBiT cells
[6] = 72 h, MV4-11 cells, read-out: EC50 cytotoxicity

| Compound | pEC50 (MV4-11 cells (naive); [4]) | Dmax (maximal degradation) AURKB [1] | DC50 [1] [nM] | Dmax (maximal degradation) TTK [2] | DC50 [2] | Dmax (maximal degradation) AURKA [3, 5] [%] | DC50 [3, 5] [nM] | selectivity of AURKA degradation (DC50) relative to TTK ([3]; HiBiT, 6 h) [fold] | fold lower activity (DC50) against TTK in comparison to degrader 19 ([2]; HiBiT, 6 h) [fold] | DC50 (half-maximal degradation concentration) AURKB [1] | DC50 (half-maximal degradation concentration) TTK [2] | pEC50 (MV4-11 cells (naive); [6]) | EC50 (concentration that decreases cell viability by 50%) (MV4-11 cells (naive); 72 h treatment, MV4-11 cells (naive)) | DC50 (half-maximal degradation concentration) AURKA [3, 5] |
| --- | --- | --- | --- | --- | --- | --- | --- | --- | --- | --- | --- | --- | --- | --- |
| O=C1CCC(N2C(=O)c3cccc(NC(=O)CCCC(=O)N4CCN(c5ccc(Nc6nc(NC7CCCCC7)c7nc[nH]c7n6)cc5)CC4)c3C2=O)C(=O)N1 (stereo not drawn) [Compound 13] | 5.92 | 30.60% | 380 | 27.70% | 3 nM | 68.40 | 94 | – | – | – | – | – | – | – |
| O=C1CCC(N2C(=O)c3cccc(NC(=O)COCCOCC(=O)N4CCN(c5ccc(Nc6nc(NC7CCCCC7)c7nc[nH]c7n6)cc5)CC4)c3C2=O)C(=O)N1 (stereo not drawn) [Compound 17] | 6.30 | 36.10% | 598 | 39.40% | 66 nM | 68.90 | 239 | – | – | – | – | – | – | – |
| CC(C)S(=O)(=O)c1ccccc1Nc1nc(Nc2ccc(N3CCN(C(=O)COCCOCC(=O)Nc4cccc5c4C(=O)N(C4CCC(=O)NC4=O)C5=O)CC3)cc2)nc2[nH]cnc12 (stereo not drawn) [Compound 18] | 5.95 | 22.20% | – | inactive | – | 62.10 | 1260 | – | – | – (compounds with degradation less than 25% were not calculated and reported as “–”) | – (compounds with degradation less than 25% were not calculated and reported as “–”) | – | – | – |
| O=C(CCCC(=O)Nc1cccc2c1C(=O)N(C1CCC(=O)NC1=O)C2=O)NCC(=O)N1CCN(c2ccc(Nc3nc(NC4CCCCC4)c4nc[nH]c4n3)cc2)CC1 (stereo not drawn) [Compound 19] | 5.86 | 43.60% | 570 | 67% and 66.50% | 18 nM and 17.7 nM | 78.80 | 109 | – | – | – | – | 5.85 | – | – |
| COc1cc(N2CCN(C(=O)CNC(=O)CCCC(=O)Nc3cccc4c3C(=O)N(C3CCC(=O)NC3=O)C4=O)CC2)ccc1Nc1nc(Nc2ccccc2S(=O)(=O)C(C)C)c2nc[nH]c2n1 (stereo not drawn) [Compound 21] | – | inactive | – | 41.90% | 26 nM | 59.30 | 56 | – | – | – (compounds with degradation less than 25% were not calculated and reported as “–”) | – | – | — (compounds with decrease of cell viability less than 50% were not calculated and reported as “—”) | – |
| CN1C(=O)CCC(N2C(=O)c3cccc(NC(=O)CCCC(=O)NCC(=O)N4CCN(c5ccc(Nc6nc(NC7CCCCC7)c7nc[nH]c7n6)cc5)CC4)c3C2=O)C1=O (stereo not drawn) [Compound 23] | 6.16 | 48.30% | 363 | 32.55% | 600 nM | 55.25 | 299 | – | 34 | – | – | 6.15 | – | – |
| CC(C)S(=O)(=O)c1ccccc1Nc1nc(Nc2ccc(N3CCN(C(=O)CNC(=O)CCCC(=O)Nc4cccc5c4C(=O)N(C4CCC(=O)N(C)C4=O)C5=O)CC3)cc2)nc2[nH]cnc12 (stereo not drawn) [Compound 24] | 6.21 | 20.40% | – | 16.95% | – | 17.00 | – | – | – | – (compounds with degradation less than 25% were not calculated and reported as “–”) | – (compounds with degradation less than 25% were not calculated and reported as “–”) | – | – | – (compounds with degradation less than 25% were not calculated and reported as “–”) |

Continued, in another order:

| pEC50 (MV4-11 cells (naive); [4]) | Dmax (maximal degradation) AURKB [1] | DC50 [1] [nM] | Dmax (maximal degradation) TTK [2] | DC50 [2] | Dmax (maximal degradation) AURKA [3, 5] [%] | DC50 [3, 5] [nM] | selectivity of AURKA degradation (DC50) relative to TTK ([3]; HiBiT, 6 h) [fold] | fold lower activity (DC50) against TTK in comparison to degrader 19 ([2]; HiBiT, 6 h) [fold] | Compound | DC50 (half-maximal degradation concentration) AURKB [1] | DC50 (half-maximal degradation concentration) TTK [2] | pEC50 (MV4-11 cells (naive); [6]) | EC50 (concentration that decreases cell viability by 50%) (MV4-11 cells (naive); 72 h treatment, MV4-11 cells (naive)) | DC50 (half-maximal degradation concentration) AURKA [3, 5] |
| --- | --- | --- | --- | --- | --- | --- | --- | --- | --- | --- | --- | --- | --- | --- |
| 7.41 | 33.15% | 154 | 35.20% | 42 nM | 74.55 | 2.05 | 21 | – | CC(C)S(=O)(=O)c1ccccc1Nc1nc(Nc2ccc(N3CCN(C(=O)CCC(=O)Nc4cccc5c4C(=O)N(C4CCC(=O)NC4=O)C5=O)CC3)cc2)nc2[nH]cnc12 (stereo not drawn) [Compound 15] | – | – | – | – | – |
| 7.24 | 33.40% | 2690 | 28.90% | 205 nM | 34.80 | 119 | – | – | CC(C)S(=O)(=O)c1ccccc1Nc1nc(Nc2ccc(N3CCN(CC(=O)Nc4cccc5c4C(=O)N(C4CCC(=O)NC4=O)C5=O)CC3)cc2)nc2[nH]cnc12 (stereo not drawn) [Compound 26] | – | – | – | – | – |
| 7.04 | 48.90% | 270 | 52.95% | 89.1 nM | 75.10 | 4.8 | – | – | CC(C)S(=O)(=O)c1ccccc1Nc1nc(Nc2ccc(N3CCN(CCCC(=O)Nc4cccc5c4C(=O)N(C4CCC(=O)NC4=O)C5=O)CC3)cc2)nc2[nH]cnc12 (stereo not drawn) [Compound 27] | – | – | – | – | – |
| 6.90 | 45.95% | 273 | 59.05% | 84.5 nM | 69.70 | 4.85 | – | – | CC(C)S(=O)(=O)c1ccccc1Nc1nc(Nc2ccc(N3CCN(CCCCC(=O)Nc4cccc5c4C(=O)N(C4CCC(=O)NC4=O)C5=O)CC3)cc2)nc2[nH]cnc12 (stereo not drawn) [Compound 28] | – | – | – | – | – |
